Measurements as given in patent publication US5434133A, “CNP analog peptides and their use” (Suntory Limited, priority 1991, dated 1995).
“Also recorded” adds a separate entry of the source. Where a SMILES comes first, the peptide text is derived from it. Bridges are numbered along the chain shown (N, C = ends). Where no end group is shown, it is not given here. [ ]: non-standard residue; d: D form. Cha = N[C@@H](CC1CCCCC1)C(=O)O

Tested on: cultured vascular smooth muscle cells (VSMC) derived from the aortas of rats
Test: cGMP producing activity in cultured VSMC (cGMP radioimmunoassay)
Assay type: cell-based, rat
Details: for cGMP producing activity (in words): comparison with CNP-22 or α-hANP; for cGMP producing activity (% increase for 1 μm): specific activity compared to 1 μm α-hANP (2000 fmol/400000 cells) = 100, peptide at 1 μm
Protocol: 1-1: Measurement of CGMP Producing Activity
The above-mentioned activity of compounds synthesized according to the present invention was measured by the methods of Hirata et al. (Biochem. Biophys. Res. Commun., 128, 538, 1985) and Scarborough et al. (J. Biol. Chem., 261, 12960, 1986). The cells used were cultured vascular smooth muscle cells (hereunder abbreviated as VSMC) derived from the aortas of rats. From 10^-9 to 10^-6 M of α-hANP or a 20 peptide of interest was incubated together with VSMC and the amount cGMP produced was measured by cGMP radioimmunoassay. Percent maximum reactivity for each peptide, with the value of maximum reactivity for α-hANP being taken as 100%, was used as an indicator of activity.

Molecule | cGMP producing activity (in words) (rat VSMC) | cGMP producing activity (% increase for 1 μm) | cGMP producing activity relative to α-hANP (rat VSMC, times as high activity as α-hANP)
CC[C@H](C)[C@@H]1NC(=O)[C@H](CCCNC(=N)N)NC(=O)[C@H](CC(=O)O)NC(=O)[C@H](CCSC)NC(=O)[C@H](CCCNC(=N)N)NC(=O)CNC(=O)CNC(=O)[C@H](Cc2ccccc2)NC(=O)[C@@H](NC(=O)[C@H](CO)NC(=O)[C@H](CO)NC(=O)[C@H](CCCNC(=N)N)NC(=O)[C@H](CCCNC(=N)N)NC(=O)[C@H](CC(C)C)NC(=O)[C@@H](N)CO)CSSC[C@@H](C(=O)O)NC(=O)CNC(=O)[C@H](CC(C)C)NC(=O)CNC(=O)[C@H](CO)NC(=O)[C@H](CCC(N)=O)NC(=O)[C@H](C)NC(=O)CNC1=O [Compound 1] | only a weak cGMP producing activity at a level comparable to α-hANP | 62% | –
CC[C@H](C)[C@@H]1NC(=O)[C@H](CCCNC(=N)N)NC(=O)[C@H](CC(=O)O)NC(=O)[C@H](CC(C)C)NC(=O)[C@H](CCCCN)NC(=O)[C@H](CC(C)C)NC(=O)CNC(=O)[C@H](Cc2ccccc2)NC(=O)[C@@H](NC(=O)CNC(=O)[C@H](CCCCN)NC(=O)[C@H](CO)NC(=O)[C@H](CC(C)C)NC(=O)CN)CSSC[C@@H](C(=O)N[C@@H](CC(N)=O)C(=O)N[C@@H](CO)C(=O)N[C@@H](Cc2ccccc2)C(=O)N[C@@H](CCCNC(=N)N)C(=O)N[C@@H](Cc2ccc(O)cc2)C(=O)O)NC(=O)CNC(=O)[C@H](CC(C)C)NC(=O)CNC(=O)[C@H](CO)NC(=O)[C@H](CCSC)NC(=O)[C@H](CO)NC(=O)CNC1=O [Compound 3] | strong cGMP producing activity at a comparable level to that exhibited by CNP-22 | 667% | –
CC[C@H](C)[C@@H]1NC(=O)[C@H](CCCNC(=N)N)NC(=O)[C@H](CC(=O)O)NC(=O)[C@H](CC(C)C)NC(=O)[C@H](CCCCN)NC(=O)[C@H](CC(C)C)NC(=O)CNC(=O)[C@H](Cc2ccccc2)NC(=O)[C@@H](NC(=O)[C@H](CO)NC(=O)[C@H](CO)NC(=O)[C@H](CCCNC(=N)N)NC(=O)[C@H](CCCNC(=N)N)NC(=O)[C@H](CC(C)C)NC(=O)[C@@H](N)CO)CSSC[C@@H](C(=O)O)NC(=O)CNC(=O)[C@H](CC(C)C)NC(=O)CNC(=O)[C@H](CO)NC(=O)[C@H](CCSC)NC(=O)[C@H](CO)NC(=O)CNC1=O [Compound 4] (H-SLRRSSCFGLKLDRIGSMSGLGC-OH; disulfide 7-23) | strong cGMP producing activity at a comparable level to that exhibited by CNP-22 | 663% | –
CC[C@H](C)[C@@H]1NC(=O)[C@H](CCCNC(=N)N)NC(=O)[C@H](CC(=O)O)NC(=O)[C@H](CCSC)NC(=O)[C@H](CCCCN)NC(=O)CNC(=O)CNC(=O)[C@H](Cc2ccccc2)NC(=O)[C@@H](NC(=O)CNC(=O)[C@H](CCCCN)NC(=O)[C@H](CO)NC(=O)[C@H](CC(C)C)NC(=O)CN)CSSC[C@@H](C(=O)O)NC(=O)CNC(=O)[C@H](CC(C)C)NC(=O)CNC(=O)[C@H](CO)NC(=O)[C@H](CCSC)NC(=O)[C@H](CO)NC(=O)CNC1=O [Compound 11] (H-GLSKGCFGGKMDRIGSMSGLGC-OH; disulfide 6-22) | particularly marked; also recorded: lower in cGMP producing activity than the other one- and two-residue substituted derivatives | 71% | –
CC[C@H](C)[C@@H]1NC(=O)[C@H](CCCNC(=N)N)NC(=O)[C@H](CC(=O)O)NC(=O)[C@H](CCSC)NC(=O)[C@H](CCCNC(=N)N)NC(=O)[C@H](CC(C)C)NC(=O)CNC(=O)[C@H](Cc2ccccc2)NC(=O)[C@@H](NC(=O)CNC(=O)[C@H](CCCCN)NC(=O)[C@H](CO)NC(=O)[C@H](CC(C)C)NC(=O)CN)CSSC[C@@H](C(=O)O)NC(=O)CNC(=O)[C@H](CC(C)C)NC(=O)CNC(=O)[C@H](CO)NC(=O)[C@H](CCSC)NC(=O)[C@H](CO)NC(=O)CNC1=O [Compound 12] (H-GLSKGCFGLRMDRIGSMSGLGC-OH; disulfide 6-22) | – | 273% | –
CC[C@H](C)[C@@H]1NC(=O)[C@H](CCCNC(=N)N)NC(=O)[C@H](CC(=O)O)NC(=O)[C@H](CC(C)C)NC(=O)[C@H](CCCNC(=N)N)NC(=O)CNC(=O)CNC(=O)[C@H](Cc2ccccc2)NC(=O)[C@@H](NC(=O)CNC(=O)[C@H](CCCCN)NC(=O)[C@H](CO)NC(=O)[C@H](CC(C)C)NC(=O)CN)CSSC[C@@H](C(=O)O)NC(=O)CNC(=O)[C@H](CC(C)C)NC(=O)CNC(=O)[C@H](CO)NC(=O)[C@H](CCSC)NC(=O)[C@H](CO)NC(=O)CNC1=O [Compound 13] (H-GLSKGCFGGRLDRIGSMSGLGC-OH; disulfide 6-22) | – | 58% | –
CC[C@H](C)[C@H](NC(=O)[C@H](CCCNC(=N)N)NC(=O)[C@H](CC(=O)O)NC(=O)[C@H](CC(C)C)NC(=O)[C@H](CCCCN)NC(=O)[C@H](CC(C)C)NC(=O)CNC(=O)[C@H](Cc1ccccc1)NC(=O)[C@H](CSC)NC(=O)CNC(=O)[C@H](CCCCN)NC(=O)[C@H](CO)NC(=O)[C@H](CC(C)C)NC(=O)CN)C(=O)NCC(=O)N[C@@H](CO)C(=O)N[C@@H](CCSC)C(=O)N[C@@H](CO)C(=O)NCC(=O)N[C@@H](CC(C)C)C(=O)NCC(=O)N[C@@H](CSC)C(=O)O [Compound 19, H-Gly-Leu-Ser-Lys-Gly-Cys(Me)-Phe-Gly-Leu-Lys-Leu-Asp-Arg-Ile-Gly-Ser-Met- Ser-Gly-Leu-Gly-Cys(Me)-OH] | hardly reduced the cGMP producing activity | 38% | –
CC[C@H](C)[C@@H]1NC(=O)[C@H](CCCNC(=N)N)NC(=O)[C@H](CC(=O)O)NC(=O)[C@H](CC(C)C)NC(=O)[C@H](CCCCN)NC(=O)[C@H](CC(C)C)NC(=O)CNC(=O)[C@H](CC2CCCCC2)NC(=O)[C@@H](N)CSSC[C@@H](C(=O)N[C@@H](CC(N)=O)C(=O)N[C@@H](CO)C(=O)N[C@@H](Cc2ccccc2)C(=O)N[C@@H](CCCNC(=N)N)C(=O)N[C@@H](Cc2ccc(O)cc2)C(=O)O)NC(=O)CNC(=O)[C@H](CC(C)C)NC(=O)CNC(=O)[C@H](CO)NC(=O)[C@H](CCC(N)=O)NC(=O)[C@H](C)NC(=O)CNC1=O [Compound 27] (H-C[Cha]GLKLDRIGAQSGLGCNSFRY-OH; disulfide 1-17) | – | 523% | 4-6 times
GLSKGCpC1FGLKLDRIGSMSGLGC [Compound 16] | stronger activity than CNP-22 | 688% | –
pCNP-53: porcine CNP-53, CNP-22 with 31 amino acid residues attached to the N-terminus (DLRVDTKSRAAWARLLHEHPNARKYKGGNKKGLSKGCFGLKLDRIGSMSGLGC; disulfide 37-53 (inferred); ends not checked; UniProt P18104 74-126, looked up) [reference compound] | – | 524% | –
